In patent US11878975B2, “Substituted indole compounds useful as TLR inhibitors” (BRISTOL-MYERS SQUIBB COMPANY, priority 2017, dated 2024):

Columns and labels:
Format in all cases: cell-based
[1] = target: T1, human TLR8 (Homo sapiens, UniProt Q9NR97); test: TLR8 inhibition reporter assay (HEK-Blue cells, SEAP reporter, R848 stimulation); conditions: HEK-Blue cells overexpressing human TLR8, SEAP reporter, R848 15.9 μM
T1 construct: host or cells: HEK-Blue cells
T1 sequence (Q9NR97 27-1041): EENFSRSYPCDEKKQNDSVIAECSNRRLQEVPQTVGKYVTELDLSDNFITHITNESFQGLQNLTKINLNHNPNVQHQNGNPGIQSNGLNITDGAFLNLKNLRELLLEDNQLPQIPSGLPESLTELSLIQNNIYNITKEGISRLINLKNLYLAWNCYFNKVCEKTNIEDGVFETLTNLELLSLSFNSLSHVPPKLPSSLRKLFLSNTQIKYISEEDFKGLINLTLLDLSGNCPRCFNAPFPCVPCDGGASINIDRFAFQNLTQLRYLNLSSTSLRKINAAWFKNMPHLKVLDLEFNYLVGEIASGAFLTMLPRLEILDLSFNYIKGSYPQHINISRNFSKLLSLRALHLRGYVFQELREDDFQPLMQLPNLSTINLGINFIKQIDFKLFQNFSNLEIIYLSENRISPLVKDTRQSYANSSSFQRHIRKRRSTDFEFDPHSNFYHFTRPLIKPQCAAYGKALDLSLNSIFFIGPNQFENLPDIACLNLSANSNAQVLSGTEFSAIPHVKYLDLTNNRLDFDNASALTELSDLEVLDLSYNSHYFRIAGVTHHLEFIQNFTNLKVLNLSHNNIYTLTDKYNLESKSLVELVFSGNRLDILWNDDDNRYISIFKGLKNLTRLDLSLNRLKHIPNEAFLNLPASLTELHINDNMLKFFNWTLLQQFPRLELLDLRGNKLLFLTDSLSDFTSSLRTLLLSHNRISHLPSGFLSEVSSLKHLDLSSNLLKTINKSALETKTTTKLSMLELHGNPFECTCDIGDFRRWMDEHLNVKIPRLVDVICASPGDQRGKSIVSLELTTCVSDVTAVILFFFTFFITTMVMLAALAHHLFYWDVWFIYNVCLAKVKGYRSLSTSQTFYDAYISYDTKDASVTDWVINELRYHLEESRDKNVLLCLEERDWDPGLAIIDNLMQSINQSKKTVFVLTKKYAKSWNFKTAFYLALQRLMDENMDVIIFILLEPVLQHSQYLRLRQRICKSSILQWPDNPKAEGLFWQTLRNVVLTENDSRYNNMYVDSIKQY
How it was run: (§1)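 Percent inhibition is derived from SEAP signal, scaled between agonist-plus-DMSO wells and wells given a known inhibitor. Test compounds (0.05 nM–50 μM) are pre-incubated 30 min at room temperature before agonist addition (TLR7: 7.5 μM gardiquimod; TLR8: 15.9 μM R848; TLR9: 5 nM ODN2006) and 22 h culture at 37 °C.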

[2] = target: T2, human TLR7 (Homo sapiens, UniProt Q9NYK1); test: TLR7 inhibition reporter assay (HEK-Blue cells, SEAP reporter, gardiquimod stimulation); conditions: HEK-Blue cells overexpressing human TLR7, SEAP reporter, gardiquimod 7.5 μM
T2 construct: host or cells: HEK-Blue cells
T2 sequence (Q9NYK1 27-1049): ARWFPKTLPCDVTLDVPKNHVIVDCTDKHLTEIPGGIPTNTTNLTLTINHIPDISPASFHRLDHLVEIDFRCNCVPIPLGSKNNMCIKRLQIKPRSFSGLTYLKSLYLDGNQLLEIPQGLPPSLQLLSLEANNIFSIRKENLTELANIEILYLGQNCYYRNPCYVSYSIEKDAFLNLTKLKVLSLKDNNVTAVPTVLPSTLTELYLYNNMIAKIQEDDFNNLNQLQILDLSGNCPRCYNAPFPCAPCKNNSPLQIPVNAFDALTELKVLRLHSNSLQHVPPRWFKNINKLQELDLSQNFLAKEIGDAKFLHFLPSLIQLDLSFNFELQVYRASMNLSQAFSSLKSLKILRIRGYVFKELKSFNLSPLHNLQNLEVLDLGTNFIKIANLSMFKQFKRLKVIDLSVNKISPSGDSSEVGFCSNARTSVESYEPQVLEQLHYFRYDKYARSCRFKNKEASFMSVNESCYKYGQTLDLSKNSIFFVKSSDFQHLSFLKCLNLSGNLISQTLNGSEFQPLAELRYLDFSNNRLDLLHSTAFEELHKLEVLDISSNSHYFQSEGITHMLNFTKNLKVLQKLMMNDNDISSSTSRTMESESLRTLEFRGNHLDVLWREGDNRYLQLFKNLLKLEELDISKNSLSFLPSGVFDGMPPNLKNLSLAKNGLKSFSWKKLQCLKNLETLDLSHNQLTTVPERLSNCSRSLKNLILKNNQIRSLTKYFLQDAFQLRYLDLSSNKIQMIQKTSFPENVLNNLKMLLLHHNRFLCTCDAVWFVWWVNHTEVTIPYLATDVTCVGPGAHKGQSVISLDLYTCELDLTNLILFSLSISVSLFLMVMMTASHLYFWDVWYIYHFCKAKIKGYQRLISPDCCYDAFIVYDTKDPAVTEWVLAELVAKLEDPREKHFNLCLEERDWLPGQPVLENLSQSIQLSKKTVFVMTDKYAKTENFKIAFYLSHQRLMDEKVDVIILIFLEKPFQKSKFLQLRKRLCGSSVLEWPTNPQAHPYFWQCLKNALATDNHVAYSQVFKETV
How it was run: as §1

[3] = target: T3, human TLR9 (Homo sapiens, UniProt Q9NR96); test: TLR9 inhibition reporter assay (HEK-Blue cells, SEAP reporter, ODN2006 stimulation); conditions: HEK-Blue cells overexpressing human TLR9, SEAP reporter, ODN2006 5 nM
T3 construct: host or cells: HEK-Blue cells
T3 sequence (Q9NR96 26-1032): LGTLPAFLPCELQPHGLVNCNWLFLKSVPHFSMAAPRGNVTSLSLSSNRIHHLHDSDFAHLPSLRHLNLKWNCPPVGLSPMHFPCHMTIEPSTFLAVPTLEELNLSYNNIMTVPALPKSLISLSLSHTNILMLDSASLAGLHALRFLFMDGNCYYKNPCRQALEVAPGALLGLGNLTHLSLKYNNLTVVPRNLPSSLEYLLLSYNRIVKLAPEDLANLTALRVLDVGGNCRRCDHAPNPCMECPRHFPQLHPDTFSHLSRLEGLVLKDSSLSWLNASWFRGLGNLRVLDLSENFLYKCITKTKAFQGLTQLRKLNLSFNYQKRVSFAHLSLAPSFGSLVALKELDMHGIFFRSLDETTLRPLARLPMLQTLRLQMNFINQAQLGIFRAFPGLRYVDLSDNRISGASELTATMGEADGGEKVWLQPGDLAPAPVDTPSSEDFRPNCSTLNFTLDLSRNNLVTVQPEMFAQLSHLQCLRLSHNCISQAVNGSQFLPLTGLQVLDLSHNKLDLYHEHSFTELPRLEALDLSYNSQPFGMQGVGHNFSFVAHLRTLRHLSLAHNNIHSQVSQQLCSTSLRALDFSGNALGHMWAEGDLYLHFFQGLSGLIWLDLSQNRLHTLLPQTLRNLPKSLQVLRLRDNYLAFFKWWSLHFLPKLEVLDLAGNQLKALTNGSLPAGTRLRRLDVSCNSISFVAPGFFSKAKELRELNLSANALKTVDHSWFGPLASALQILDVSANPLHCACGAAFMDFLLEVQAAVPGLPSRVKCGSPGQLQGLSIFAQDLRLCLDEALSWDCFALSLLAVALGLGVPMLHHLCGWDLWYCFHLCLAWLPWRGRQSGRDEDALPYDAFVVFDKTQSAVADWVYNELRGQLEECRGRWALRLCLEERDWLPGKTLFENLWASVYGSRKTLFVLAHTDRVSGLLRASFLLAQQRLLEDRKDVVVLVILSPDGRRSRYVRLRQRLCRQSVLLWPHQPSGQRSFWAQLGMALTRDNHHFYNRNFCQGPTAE
How it was run: as §1

Question: For `CC(C)c1c(-c2ccnc3[nH]ncc23)[nH]c2ccc(CN3CCN(C)CC3)cc12` [Example 442], which IC50 [1] is on record?
Answer: Its IC50 is 4.6 nM.

Question: What about the IC50 [2] of the same compound?
Answer: The IC50 was 26 nM.

Question: And the IC50 [3]?
Answer: The IC50 was 7600 nM.

Question: How did the IC50 [1] turn out when `CC(C)c1c(-c2ccnc3[nH]ncc23)[nH]c2ccc(CN3CCCCC3)cc12` [Example 443] was run?
Answer: Its IC50 is 158 nM.

Question: What about the IC50 [2] of the same compound?
Answer: Its IC50 is 279 nM.

Question: And the IC50 [3]?
Answer: Its IC50 is 2850 nM.

Question: For `CCc1c(-c2ccnc(C)c2)[nH]c2ccc(CNC(=O)CCC3CCNCC3)cc12` [Example 444], which IC50 [1] is on record?
Answer: The IC50 was 9240 nM.

Question: What about the IC50 [2] of the same compound?
Answer: The IC50 was 3060 nM.

Question: What about the IC50 [3] of the same compound?
Answer: Its IC50 is 4960 nM.

Question: With `CCc1c(-c2ccnc(C)c2)[nH]c2ccc(CNC(=O)C3CCNC3)cc12` (stereo not drawn) [Example 445] as the compound, how does the IC50 [1] read?
Answer: Its IC50 is 3240 nM.

Question: What about the IC50 [2] of the same compound?
Answer: The IC50 was 2680 nM.

Question: And the IC50 [3]?
Answer: Its IC50 is 1620 nM.

Question: Which IC50 [1] does the source give for `CCc1c(-c2ccnc(C)c2)[nH]c2ccc(CNC(=O)C3CCN(C)CC3)cc12` [Example 446] here?
Answer: The IC50 was 70 nM.

Question: What about the IC50 [2] of the same compound?
Answer: The IC50 was 541 nM.

Question: What about the IC50 [3] of the same compound?
Answer: Its IC50 is 406 nM.

Question: For `CCc1c(-c2ccnc(C)c2)[nH]c2ccc(CNC(=O)C3CC4(CCNCC4)C3)cc12` [Example 447], which IC50 [1] is on record?
Answer: Its IC50 is 14 nM.

Question: And the IC50 [2]?
Answer: The IC50 was 4010 nM.

Question: What about the IC50 [3] of the same compound?
Answer: The IC50 was 1140 nM.

Question: With `CCc1c(-c2ccnc(C)c2)[nH]c2ccc(CNC(=O)N3CCN(C)CC3)cc12` [Example 448] as the compound, how does the IC50 [1] read?
Answer: The IC50 was 134 nM.

Question: And the IC50 [2]?
Answer: Its IC50 is 1520 nM.

Question: What about the IC50 [3] of the same compound?
Answer: The IC50 was 1250 nM.

Question: Which IC50 [1] does the source give for `CCc1c(-c2ccnc(C)c2)[nH]c2ccc(CNC(=O)OCC3CCNCC3)cc12` [Example 449] here?
Answer: Its IC50 is 228 nM.

Question: What about the IC50 [2] of the same compound?
Answer: Its IC50 is 1600 nM.

Question: And the IC50 [3]?
Answer: The IC50 was 480 nM.

Question: Which IC50 [1] does the source give for `COc1ccc(-c2[nH]c3ccc(C4CCC(N)CC4)cc3c2C(C)C)cc1OC` (stereo not drawn) [Example 450] here?
Answer: The IC50 was 11 nM.

Question: And the IC50 [2]?
Answer: Its IC50 is 8 nM.

Question: And the IC50 [3]?
Answer: Its IC50 is 2200 nM.

Question: Which IC50 [1] does the source give for `COc1ccc(-c2[nH]c3ccc(C4CCC(O)CC4)cc3c2C(C)C)cc1OC` (stereo not drawn) [Example 451] here?
Answer: The IC50 was 238 nM.

Question: What about the IC50 [2] of the same compound?
Answer: Its IC50 is 139 nM.

Question: And the IC50 [3]?
Answer: Its IC50 is 19500 nM.

Question: Which IC50 [1] does the source give for `COc1ccc(-c2[nH]c3ccc(C4CCC(O)CC4)cc3c2C(C)C)cc1OC` (stereo not drawn) [Example 452] here?
Answer: The IC50 was 737 nM.

Question: What about the IC50 [2] of the same compound?
Answer: The IC50 was 242 nM.

Question: And the IC50 [3]?
Answer: The IC50 was 46500 nM.
